Several values for one entry are separate records, joined by “and”; a condition that tells them apart may be missing. Equal entries are not always repeated.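 In this assay, cells in 96-well plates receive the compound at five concentrations for 48 hours. Endpoints are linearly interpolated between the surrounding concentrations. GI50 = concentration required for 50% inhibition of growth. TGI: concentration producing complete growth inhibition.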
Assays:
Assay in all cases: growth of human tumour cells (NCI), 48 h
[1] = test system: CAKI-1 renal
[2] = test system: HCT-116 colon
[3] = test system: HOP-92 NSCLC
[4] = test system: MDA-MB-231 breast
[5] = test system: MDA-MB-435
[6] = test system: NCI-H226 lung
[7] = test system: OVCAR-4 ovarian
[8] = test system: PC-3 prostate
[9] = test system: SK-MEL-28 melanoma
[10] = test system: SW-620 colon

SMILES	TGI [1]	TGI [2]	TGI [3]	TGI [4]	TGI [5]	TGI [6]	TGI [7] [µM]	TGI [8]	TGI [9]	TGI [10]	GI50 [3]	GI50 [6]	GI50 [7]	GI50 [10]	GI50 [1] [µM]	GI50 [2]	GI50 [4]	GI50 [5]	GI50 [8]	GI50 [9]
Nc1nc2c(c(=O)[nH]1)CN(c1ccc(S(N)(=O)=O)cc1)CN2	> 100 µM	> 100 µM	> 100 µM	> 100 µM	> 100 µM	> 100 µM	> 100	> 100 µM	> 100 µM	> 100 µM	–	–	–	–	–	–	–	–	–	–
CC1C(=O)C(C)C(c2ccccc2)N(N=O)C1c1ccccc1 (stereo not drawn)	> 700 µM	354 µM	78.4 µM and 264 µM	250 µM	346 µM	572 µM	> 661	754 µM	> 834 µM	> 1000 µM	107 µM	260 µM	> 378 µM	> 1000 µM	–	–	–	–	–	–
COc1ccc2c3c(c(=O)n(C)c2c1OC)C=CC(C)(C)O3	38.4 µM	> 100 µM	76 µM	54 µM	> 100 µM	80.9 µM	41.3	> 100 µM	> 100 µM	> 100 µM	–	–	–	–	–	–	–	–	–	–
Fc1ccc2[nH]c3c(NCCCN4CCOCC4)ncnc3c2c1	> 100 µM	> 100 µM	84.1 µM	> 100 µM	> 100 µM	> 100 µM	> 100	> 100 µM	> 100 µM	> 100 µM	13.5 µM	63.3 µM	65.8 µM	40.8 µM	34.2	33.7 µM	23.6 µM	51 µM	65.7 µM	70.4 µM
OCc1ccc(-c2nn(Cc3ccccc3)c3ccccc23)o1	> 63.5 µM and 34 µM	20 µM and 22.7 µM	38.9 µM and 38.1 µM	60.3 µM and 55.2 µM	40.8 µM and 39.5 µM	0.346 µM and 0.371 µM	> 100	64.7 µM and 36 µM	36.5 µM and 47.5 µM	51.9 µM and 32.8 µM	10.4 µM and 12.2 µM	0.156 µM and 0.114 µM	10.2 µM and 28.1 µM	13.3 µM and 12.3 µM	–	1.65 µM and 8.72 µM	19.6 µM and 22.2 µM	17.2 µM and 18.7 µM	21.8 µM and 16.6 µM	16.9 µM and 15.7 µM
COc1cc[nH]c1/C=C1\C(=O)Nc2ccc(F)c(I)c21	> 25 µM	> 25 µM	> 25 µM	> 25 µM	> 25 µM	> 25 µM	> 25	> 25 µM	> 25 µM	> 25 µM	> 25 µM	> 25 µM	> 25 µM	> 25 µM	0.557	> 25 µM	> 25 µM	> 25 µM	> 25 µM	> 25 µM
Nc1cc(N)c(N)cc1N	7.17 µM	4.61 µM	27.2 µM	29.4 µM	0.851 µM	3.96 µM	3.35	> 100 µM	3.88 µM	12.1 µM	12 µM	1.93 µM	1.79 µM	3.09 µM	2.55	2.01 µM	5.02 µM	0.296 µM	3.1 µM	2.03 µM
Fc1cccc(COc2ccc(Nc3ncnc4cc(-c5ccc[nH]5)sc34)cc2Cl)c1	6.89 µM	> 25 µM	2.39 µM	> 15.7 µM	> 25 µM	> 16.8 µM	3.84	> 15.7 µM	> 25 µM	> 25 µM	0.31 µM	1.7 µM	0.0847 µM	8.56 µM	0.681	7.46 µM	0.734 µM	6.11 µM	0.77 µM	7.96 µM
COc1ccc(-c2cn(-c3ccccc3)c(-c3ccccc3)n2)cc1OC	27 µM	11.9 µM	10.8 µM	23.5 µM	12.5 µM	40.3 µM	32.9	24.7 µM	26.2 µM	18.5 µM	1.82 µM	15 µM	10.9 µM	3.69 µM	11.2	2.84 µM	10.8 µM	2.94 µM	5.53 µM	12 µM
CC(C)(C)c1ccc(S(=O)(=O)N[C@H]2CC[C@H]3[C@@H]4CCc5cc(OS(=O)(=O)O)ccc5[C@H]4CC[C@]23C)cc1	8.89 µM	3.35 µM	5.31 µM	4.26 µM	5.9 µM	3.06 µM	9.92	17.5 µM	3.38 µM	12.5 µM	2.11 µM	1.59 µM	2.49 µM	3.37 µM	2.77	1.79 µM	1.94 µM	2.32 µM	4.19 µM	1.8 µM
C=C(C)C(=O)O[C@H]1[C@H]2[C@H](OC(=O)[C@H]2C)[C@H](O)[C@@H](C)[C@@H]2C=CC(=O)[C@]21C	5.66 µM	4.6 µM	8.89 µM	14 µM	7.28 µM	39 µM	19.9	18.5 µM	5.85 µM	10.7 µM	–	–	–	–	–	–	–	–	–	–
O=C(CCl)N1c2ccccc2Sc2c1ccc1ccccc21	5.04 µM	2.78 µM	5.32 µM	4.36 µM	7.06 µM	5.26 µM	6.18	4.45 µM	7.56 µM	3.68 µM	1.04 µM	2.21 µM	2.56 µM	1.66 µM	2.05	1.45 µM	2.09 µM	2.41 µM	1.74 µM	2.98 µM
CO/N=C(\C)c1ccc(Nc2cc(-c3ccccc3)nc3c(O)cccc23)cc1	35.5 µM	52.7 µM	33.7 µM	30.6 µM	30.9 µM	78.4 µM	50.7	35 µM	84.8 µM	40 µM	17.5 µM	22.4 µM	19.9 µM	13.6 µM	19.4	22.2 µM	15 µM	15.5 µM	13.7 µM	25.5 µM
CC(=O)OCC1OC(n2ccc(=O)[nH]c2=O)C(OC(C)=O)C1OC(C)=O (stereo not drawn)	> 100 µM	> 100 µM	> 100 µM	> 100 µM	> 100 µM	> 100 µM	> 100	> 100 µM	> 100 µM	> 100 µM	> 100 µM	> 100 µM	> 100 µM	> 100 µM	> 100	> 100 µM	> 100 µM	> 100 µM	> 100 µM	> 100 µM
C[C@H]1[C@H](C)CC[C@]2(C(=O)O)CC[C@]3(C)C(=CC[C@@H]4[C@@]5(C)C/C(=C/c6cccnc6)[C@H](O)C(C)(C)[C@@H]5CC[C@]43C)[C@H]12	> 100 µM	26.8 µM	67.7 µM	72.1 µM	> 100 µM	56.8 µM	> 100	> 100 µM	34.6 µM	> 100 µM	13.8 µM	15.3 µM	43 µM	20.9 µM	17.8	10.7 µM	22.5 µM	27.6 µM	6.35 µM	13.7 µM
COc1cc(Nc2nc(N[C@H]3CCCC[C@@H]3N)nc3cc[nH]c(=O)c23)cc(OC)c1	10.9 µM	2.27 µM	9.13 µM	9.35 µM	2.6 µM	12.4 µM	20	20.8 µM	6.44 µM	2.97 µM	1.06 µM	1.88 µM	5.93 µM	1.16 µM	1.84	1.03 µM	1.99 µM	0.997 µM	2.53 µM	1.86 µM
CCCCN(Cc1ccc(F)cc1)c1ccc(CO)c(Cl)c1	25.5 µM	13.2 µM	19.5 µM	29 µM	35.1 µM	0.318 µM	13.6	28.4 µM	28.4 µM	20.7 µM	3.32 µM	0.146 µM	2.54 µM	6.11 µM	11.7	0.906 µM	14.8 µM	17.6 µM	13.8 µM	14.8 µM
CC(=O)O[C@@H]1CC2C(C)(C)CCCC2(C)C2=C1C(=O)C(C(C)C)=CC2=O (stereo partly drawn)	2.63 µM	2.8 µM	2.1 µM	3.13 µM	1.93 µM	2.09 µM	6.58	12.9 µM	3.43 µM	3.28 µM	0.652 µM	0.518 µM	0.838 µM	1.19 µM	1.03	0.467 µM	0.657 µM	0.481 µM	2.45 µM	0.691 µM
Oc1ccc(CCCCCCc2ccc(O)cc2)cc1	7.58 µM	22.5 µM	20.5 µM	25.9 µM	26.9 µM	32.9 µM	> 46.9	27.5 µM	31.5 µM	20.5 µM	6.99 µM	15.7 µM	14.4 µM	7.29 µM	1.75	9.68 µM	9.66 µM	11.8 µM	9.87 µM	17 µM
C[C@@H]1COCCN1c1cc(C2(S(C)(=N)=O)CC2)nc(-c2ccnc3[nH]ccc23)n1 (stereo partly drawn)	25.5 µM	> 100 µM	31.6 µM	74.7 µM	21.8 µM	76.8 µM	23.7	74.2 µM	25.8 µM	95.1 µM	2.49 µM	3.94 µM	1.86 µM	8.36 µM	2.34	4.05 µM	3.92 µM	3.74 µM	12.8 µM	5.59 µM
CC1OC2CC(=O)OC2C2=C1C(=O)c1c(O)c3c(c(O)c1C2=O)C1CC(O)C3(O)C(C)O1 (stereo not drawn)	0.613 µM	0.252 µM	3.56 µM	0.712 µM	0.591 µM	3.18 µM	1.23	6.47 µM	2.74 µM	0.774 µM	1.06 µM	0.974 µM	0.381 µM	0.168 µM	0.224	0.0452 µM	0.25 µM	0.264 µM	0.533 µM	1.21 µM
CC[C@H](CC#N)OC(=O)N[C@@H](C)c1cccc(NC(=O)Nc2ccc(-c3cnco3)c(OC)c2)c1	0.396 µM	> 45.8 µM	44.7 µM	> 89.5 µM	29 µM	38.4 µM	71.7	31.4 µM	21.8 µM	40.6 µM	2.46 µM	2 µM	14.1 µM	0.0229 µM	0.0696	0.026 µM	0.204 µM	0.0498 µM	0.0741 µM	0.0505 µM
O=C1C(Cl)=C(Nc2cccc(O)c2)C(=O)N1c1cc(Cl)c(Cl)cc1Cl	48.1 µM	30.2 µM	26.2 µM	29.5 µM	55.9 µM	40.9 µM	51.8	31.6 µM	36.3 µM	28.9 µM	12.5 µM	14.7 µM	22.7 µM	15.2 µM	19.2	15.8 µM	12.7 µM	22.7 µM	15.2 µM	18.5 µM
COC(=O)CNC(=O)[C@@H](OC)[C@@H]1Cc2cc3cc(OC4CC(OC5CC(O)C(O)C(C)O5)C(O)C(C)O4)c(C)c(O)c3c(O)c2C(=O)[C@H]1OC1CC(OC2CC(OC3CC(C)(O)C(O)C(C)O3)C(O)C(C)O2)C(O)C(C)O1 (stereo partly drawn)	3.84 µM	5.38 µM	4.59 µM	> 50 µM	1.25 µM	0.414 µM	5.4	> 50 µM	1.03 µM	> 50 µM	0.184 µM	0.11 µM	0.305 µM	0.184 µM	0.243	0.0462 µM	0.267 µM	0.166 µM	0.234 µM	0.11 µM
CN(C)CCOc1ccc2c(c1)C/C(=C/c1ncc([N+](=O)[O-])n1C)C2=O	7.81 µM	> 19.6 µM	5.77 µM	8.42 µM	11.5 µM	4.52 µM	5.84	18.3 µM	33.4 µM	18.2 µM	–	–	–	–	–	–	–	–	–	–
CC(CNC(Cc1ccccc1)c1ccccc1)NC(Cc1ccccc1)c1ccccc1 (stereo not drawn)	7.45 µM	2.86 µM	4.09 µM	3.7 µM	4.99 µM	4.09 µM	10.6	6.42 µM	7.81 µM	8.53 µM	1.83 µM	1.94 µM	2.59 µM	2.75 µM	2.16	1.37 µM	1.81 µM	2.1 µM	2.3 µM	2.84 µM

Reference: PubChem BioAssay (NCI)
